# Data published in ChEMBL document CHEMBL1201862, “PubChem BioAssay data set” (2004).
#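 How tested: cells in 96-well plates exposed to compound for 48 hours at five concentrations. GI50: concentration for 50% inhibition of growth.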 The source made the active and inactive calls. Rule as the data show it: active = GI50 up to about 1.1 µM and inactive = higher.
# How the values were obtained:
# Experiment in all cases: NCI anticancer screen, dose series, 48 h
# 786-0 = tested on: 786-0
# A498 = tested on: A498
# A549 = tested on: A549
# ACHN = tested on: ACHN
# BT-549 = tested on: BT-549
# CAKI-1 = tested on: CAKI-1
# CCRF-CEM = tested on: CCRF-CEM
# COLO 205 = tested on: COLO 205
# DU-145 = tested on: DU-145
# EKVX = tested on: EKVX
# HCC 2998 = tested on: HCC 2998
# HCT-116 = tested on: HCT-116
# HCT-15 = tested on: HCT-15
# HL-60 = tested on: HL-60
# HOP-62 = tested on: HOP-62
# HOP-92 = tested on: HOP-92
# HT-29 = tested on: HT-29
# Hs-578T = tested on: Hs-578T
# IGROV-1 = tested on: IGROV-1
# K562 = tested on: K562
# KM12 = tested on: KM12
# LOX IMVI = tested on: LOX IMVI
# M14 = tested on: M14
# MCF7 = tested on: MCF7
# MDA-MB-231 = tested on: MDA-MB-231
# MDA-MB-435 = tested on: MDA-MB-435
# MDA-N = tested on: MDA-N
# MOLT-4 = tested on: MOLT-4
# Malme-3M = tested on: Malme-3M
# NCI-H226 = tested on: NCI-H226
# NCI-H23 = tested on: NCI-H23
# NCI-H460 = tested on: NCI-H460
# NCI-H522 = tested on: NCI-H522
# NCI/ADR-RES = tested on: NCI/ADR-RES
# OVCAR-3 = tested on: OVCAR-3
# OVCAR-4 = tested on: OVCAR-4
# OVCAR-5 = tested on: OVCAR-5
# OVCAR-8 = tested on: OVCAR-8
# PC-3 = tested on: PC-3
# RPMI-8226 = tested on: RPMI-8226
# RXF 393 = tested on: RXF 393
# SF-268 = tested on: SF-268
# SF-295 = tested on: SF-295
# SF-539 = tested on: SF-539
# SK-MEL-28 = tested on: SK-MEL-28
# SK-MEL-2 = tested on: SK-MEL-2
# SK-MEL-5 = tested on: SK-MEL-5
# SK-OV-3 = tested on: SK-OV-3
# SN12C = tested on: SN12C
# SNB-19 = tested on: SNB-19
# SNB-75 = tested on: SNB-75
# SR = tested on: SR
# SW-620 = tested on: SW-620
# T47D = tested on: T47D
# TK-10 = tested on: TK-10
# U-251 = tested on: U-251
# UACC-257 = tested on: UACC-257
# UACC-62 = tested on: UACC-62
# UO-31 = tested on: UO-31
structure (smiles),measurement,setting,value
Cc1ccc2c(=O)c3c(O)c4c(cc3n(C)c2c1)OC(C)(C)C=C4,GI50,786-0,> 10 µM (inactive)
same,GI50,A498,> 10 µM (inactive)
same,GI50,A549,> 10 µM (inactive)
same,GI50,ACHN,> 10 µM (inactive)
same,GI50,BT-549,> 10 µM (inactive)
same,GI50,CAKI-1,> 10 µM (inactive)
same,GI50,CCRF-CEM,> 10 µM (inactive)
same,GI50,COLO 205,> 10 µM (inactive)
same,GI50,DU-145,> 10 µM (inactive)
same,GI50,EKVX,> 10 µM (inactive)
same,GI50,HCC 2998,> 10 µM (inactive)
same,GI50,HCT-116,> 10 µM (inactive)
same,GI50,HCT-15,> 10 µM
same,GI50,HL-60,> 10 µM (inactive)
same,GI50,HOP-62,> 10 µM (inactive)
same,GI50,HOP-92,> 10 µM (inactive)
same,GI50,HT-29,> 10 µM (inactive)
same,GI50,Hs-578T,> 10 µM (inactive)
same,GI50,IGROV-1,> 10 µM (inactive)
same,GI50,K562,> 10 µM (inactive)
same,GI50,KM12,> 10 µM (inactive)
same,GI50,LOX IMVI,> 10 µM (inactive)
same,GI50,M14,> 10 µM (inactive)
same,GI50,MCF7,> 10 µM (inactive)
same,GI50,MDA-MB-231,> 10 µM (inactive)
same,GI50,MDA-MB-435,> 10 µM (inactive)
same,GI50,MDA-N,> 10 µM (inactive)
same,GI50,MOLT-4,> 10 µM (inactive)
same,GI50,Malme-3M,> 10 µM (inactive)
same,GI50,NCI-H226,> 10 µM (inactive)
same,GI50,NCI-H23,> 10 µM (inactive)
same,GI50,NCI-H460,> 10 µM (inactive)
same,GI50,NCI-H522,> 10 µM (inactive)
same,GI50,NCI/ADR-RES,> 10 µM (inactive)
same,GI50,OVCAR-3,> 10 µM (inactive)
same,GI50,OVCAR-4,> 10 µM (inactive)
same,GI50,OVCAR-5,> 10 µM (inactive)
same,GI50,OVCAR-8,> 10 µM (inactive)
same,GI50,PC-3,> 10 µM (inactive)
same,GI50,RPMI-8226,> 10 µM (inactive)
same,GI50,RXF 393,> 10 µM (inactive)
same,GI50,SF-268,> 10 µM (inactive)
same,GI50,SF-295,> 10 µM (inactive)
same,GI50,SF-539,> 10 µM (inactive)
same,GI50,SK-MEL-28,> 10 µM (inactive)
same,GI50,SK-MEL-2,> 10 µM (inactive)
same,GI50,SK-MEL-5,> 10 µM (inactive)
same,GI50,SK-OV-3,> 10 µM (inactive)
same,GI50,SN12C,> 10 µM (inactive)
same,GI50,SNB-19,> 10 µM (inactive)
same,GI50,SNB-75,> 10 µM (inactive)
same,GI50,SR,> 10 µM (inactive)
same,GI50,SW-620,> 10 µM (inactive)
same,GI50,T47D,> 10 µM (inactive)
same,GI50,TK-10,> 10 µM (inactive)
same,GI50,U-251,> 10 µM (inactive)
same,GI50,UACC-257,> 10 µM (inactive)
same,GI50,UACC-62,> 10 µM (inactive)
O=c1[nH]nc(-c2ccccc2)c2[nH]c3c(c12)Cc1ccccc1-3,GI50,786-0,4.8 µM (inactive)
same,GI50,A498,2.35 µM (inactive)
same,GI50,A549,21.2 µM (inactive)
same,GI50,ACHN,6.18 µM (inactive)
same,GI50,BT-549,21.7 µM (inactive)
same,GI50,CAKI-1,13.8 µM (inactive)
same,GI50,CCRF-CEM,3.92 µM (inactive)
same,GI50,COLO 205,1.61 µM (inactive)
same,GI50,DU-145,10.4 µM (inactive)
same,GI50,EKVX,6.79 µM (inactive)
same,GI50,HCC 2998,6.82 µM (inactive)
same,GI50,HCT-116,1.82 µM (inactive)
same,GI50,HCT-15,0.374 µM
same,GI50,HL-60,0.665 µM (active)
same,GI50,HOP-62,9.38 µM (inactive)
same,GI50,HOP-92,1.67 µM (inactive)
same,GI50,HT-29,1.4 µM (inactive)
same,GI50,Hs-578T,5.46 µM (inactive)
same,GI50,IGROV-1,0.723 µM (active)
same,GI50,K562,0.839 µM (active)
same,GI50,KM12,< 0.0306 µM (active)
same,GI50,LOX IMVI,6.11 µM (inactive)
same,GI50,M14,4.06 µM (inactive)
same,GI50,MCF7,0.158 µM (active)
same,GI50,MDA-MB-231,0.378 µM (active)
same,GI50,MDA-MB-435,0.386 µM (active)
same,GI50,MDA-N,0.38 µM (active)
same,GI50,MOLT-4,1.19 µM (inactive)
same,GI50,Malme-3M,1.08 µM (active)
same,GI50,NCI-H226,3.9 µM (inactive)
same,GI50,NCI-H23,> 26.5 µM (inactive)
same,GI50,NCI-H460,2.11 µM (inactive)
same,GI50,NCI-H522,0.295 µM (active)
same,GI50,NCI/ADR-RES,2.14 µM (inactive)
same,GI50,OVCAR-3,0.914 µM (active)
same,GI50,OVCAR-4,3.79 µM (inactive)
same,GI50,OVCAR-5,7.16 µM (inactive)
same,GI50,OVCAR-8,6.61 µM (inactive)
same,GI50,PC-3,4.47 µM (inactive)
same,GI50,RPMI-8226,2.37 µM (inactive)
same,GI50,RXF 393,6.19 µM (inactive)
same,GI50,SF-268,2.87 µM (inactive)
same,GI50,SF-295,1.97 µM (inactive)
same,GI50,SF-539,2.34 µM (inactive)
same,GI50,SK-MEL-28,6.01 µM (inactive)
same,GI50,SK-MEL-2,1.43 µM (inactive)
same,GI50,SK-MEL-5,0.115 µM (active)
same,GI50,SK-OV-3,6.68 µM (inactive)
same,GI50,SN12C,2.32 µM (inactive)
same,GI50,SNB-19,7.06 µM (inactive)
same,GI50,SNB-75,3.28 µM (inactive)
same,GI50,SR,0.069 µM (active)
same,GI50,SW-620,2.06 µM (inactive)
same,GI50,T47D,> 100 µM (inactive)
same,GI50,TK-10,7.59 µM (inactive)
same,GI50,U-251,3.64 µM (inactive)
same,GI50,UACC-62,0.299 µM (active)
same,GI50,UO-31,5.41 µM (inactive)
